Earlier results as cited in patent US20140056935A1, “PEPTIDE WHICH CAN INDUCE ANTIBODY CAPABLE OF RECOGNIZING STEREOSTRUCTURE OF HIV” (priority 2011, published 2014).

Test system: HIV
Details: MAGI assay, Non-Patent Document 17

enfuvirtide
activity relative to C34 native peptide monomer in terms of EC50 values: about 10 times
